Data published in patent publication US10947271B2, “Antibacterial agents” (THE UNIVERSITY OF QUEENSLAND, priority 2014, dated 2021).

How the values were obtained:
[1] = test system: Staphylococcus aureus MRSA ATCC 43300; test: MIC assay, S. aureus MRSA ATCC 43300; format: cell-based; conditions: 24 h incubation, visual reading
In short: (§1)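 Mid-log cultures in MHB were added at 5×10e5 CFU/mL to compounds diluted twofold from 8 to 0.003 μg/ml. Visual inspection after 24 h incubation at 37° C. gave the MIC, the lowest concentration without visible growth.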

[2] = test system: Streptococcus pneumoniae MDR ATCC 700677; test: MIC assay, S. pneumoniae MDR ATCC 700677; format: cell-based; conditions: 24 h incubation, visual reading
In short: as §1

[3] = test system: Enterococcus faecium MDR Van A ATCC 51559; test: MIC assay, E. faecium MDR Van A ATCC 51559; format: cell-based; conditions: 24 h incubation, visual reading
In short: as §1

MRSA (Strain ATCC 43300) = test: Murine thigh infection model (MRSA); format: in vivo, Staphylococcus aureus; conditions: neutropenic CD1 mice
Experimental: Summary: Adult (8 week old) female CD1 mice were made neutropenic by two injections of cyclophosphamide 4 days and 1 day prior to infection. An inoculum of 10^5 cfu MRSA (Strain ATCC 43300) was injected intramuscularly into both left and right thighs of all mice. […] After an additional two hours, a 50 μL sample of blood was obtained from the tail bleed to analyse for presence of antibiotic compound. […] Thighs were then removed, weighed and homogenised in a fixed volume of saline. The homogenate solution was filtered, diluted and seeded onto agar plates, which were incubated overnight at 37° C. Colony counts were used to establish the cfu in the thigh homogenates, the cfu/thigh, and the cfu/g of thigh.
Compound preparation: Cyclophosphamide monohydrate (Sigma) was dissolved in sterile saline to a concentration of 30 mg/mL. Likewise, vancomycin (Sigma) and MCC compounds were also dissolved in sterile saline to a final concentration of 60 mg/mL and 18.5 mg/mL respectively. All compounds were prepared in low binding Eppendorf tubes and kept at −20° C. until used.
In vivo experimental assay: Eight week old female outbred CD1 mice (UQBR-AIBN) were rendered neutropenic by injecting two doses of cyclophosphamide intraperitoneally 4 days (150 mg/kg) and 1 day (100 mg/kg) prior to experimental infection. The infection model using MRSA was established by intramuscular injection of 50 μL of early-log-phase bacterial MRSA suspension (around 2×10^6 cfu/mL) in saline into both thigh muscles. […] Untreated animals received equivalent volume of saline (Baxter). The mice were monitored for signs of normal behaviour (i.e. grooming, eating, drinking, sleeping, and alertness) during and following dosing. Two hours after saline/antibiotic treatment, 0.05 mL of blood was collected by tail incision. 24 hours after MRSA infection, mice were euthanized and blood collected from the heart by cardiac puncture (saline group) or by tail incision (Vancomycin and MCC compound treated groups) as outlined in FIG. 1. For each mouse, both thighs were collected aseptically by cutting the leg at the hip and knee, placed in 10 mL of cold sterile saline and the individual weight of each thigh recorded.
Preparation of injectable MRSA solution: An MRSA subculture bacterial isolate (ATCC43300) was taken from the storage at −80° C. and freshly seeded on agar plates for overnight (O/N) growth. From the O/N culture preparation, a single colony was diluted into 10-12 mL of Mueller Hinton broth (MHB) and incubated O/N at 37° C. A log-phase subculture was obtained by adding 100 μL of O/N subculture in 10 mL MHB and incubated for a further 2-3 hours. Finally, the OD600 value of the bacterial suspension was determined and the colony forming units per millilitre (cfu/mL) extrapolated. A full dilution of the bacterial cell suspension in saline was achieved by washing (3220×g for 10 min) and the OD600 in saline determined. The suspension was then diluted out accordingly in order to achieve a 2×10^6 cfu/mL solution (10^5 cfu in 50 μL/thigh).
Thus, 10 μL of the injectable MRSA suspension was diluted down to 10-1000 fold, each dilution plated out onto agar plates and incubated at 37° C. for 24 hours.
Thigh homogenates and CFU determination: Thighs were homogenized at 20,000 rpm for 15 seconds using a Polytron MR2500E using a […] probe (all Kinematica).

[4] = single subcutaneous dose 10 mg/kg
[5] = single subcutaneous dose 25 mg/kg
[6] = single subcutaneous dose 50 mg/kg

Row | Structure (SMILES) | Minimum Inhibitory Concentration (MIC) Staph. aureus ATCC43300 [1] | Minimum Inhibitory Concentration (MIC) S. pneumoniae ATCC 700677 [2] | Minimum Inhibitory Concentration (MIC) E. faecium ATCC51559 [3] | Average Reduction log Δcfu MRSA/thigh after 26 h (MRSA (Strain ATCC 43300); single subcutaneous dose 5 mg/kg) | Average Reduction log Δcfu MRSA/thigh after 26 h (MRSA (Strain ATCC 43300); [4]) | Average Reduction log Δcfu MRSA/thigh after 26 h (MRSA (Strain ATCC 43300); [5]) | Average Reduction log Δcfu MRSA/thigh after 26 h (MRSA (Strain ATCC 43300); [6])
1 | CCCCCCCCCCC(=O)N[C@@H](CCCCN)C(=O)N[C@@H](CCCCN)C(=O)N[C@@H](CCCCNC(=O)[C@H]1NC(=O)[C@H]2NC(=O)[C@H](NC(=O)[C@@H]3NC(=O)[C@H](CC(N)=O)NC(=O)[C@H](NC(=O)[C@@H](CC(C)C)NC)[C@H](O)c4ccc(c(Cl)c4)Oc4cc3cc(c4O[C@@H]3O[C@H](CO)[C@@H](O)[C@H](O)[C@H]3O[C@H]3C[C@](C)(N)[C@H](O)[C@H](C)O3)Oc3ccc(cc3Cl)[C@H]2O)c2ccc(O)c(c2)-c2c(O)cc(O)cc21)C(=O)O [MCC_000174] | xxxx (xxxx = 0.01-<0.1) | xxxx (xxxx = 0.01-<0.1) | x (x = >4) | xxx (xxx = 4-6) | xxx (xxx = 4-6) | xxx (xxx = 4-6) | 
2 | CCCCCCCCCC(=O)N[C@@H](CCCNC(=N)N)C(=O)NCCCNC(=O)[C@H]1NC(=O)[C@H]2NC(=O)[C@H](NC(=O)[C@@H]3NC(=O)[C@H](CC(N)=O)NC(=O)[C@H](NC(=O)[C@@H](CC(C)C)NC)[C@H](O)c4ccc(c(Cl)c4)Oc4cc3cc(c4O[C@@H]3O[C@H](CO)[C@@H](O)[C@H](O)[C@H]3O[C@H]3C[C@](C)(N)[C@H](O)[C@H](C)O3)Oc3ccc(cc3Cl)[C@H]2O)c2ccc(O)c(c2)-c2c(O)cc(O)cc21 [MCC_005481] | xxxxx (xxxxx = <0.01) | xxxx (xxxx = 0.01-<0.1) | x (x = >4) |  | xxx (xxx = 4-6) |  | 
3 | CCCCCCCCCCC(=O)NC(CCCCN)C(=O)NC(CCCCN)C(=O)NC(CCCCNC(=O)C1NC(=O)C2NC(=O)C(NC(=O)C3NC(=O)C(CC(N)=O)NC(=O)C(NC(=O)C(CC(C)C)NC)C(O)c4ccc(c(Cl)c4)Oc4cc3cc(c4OC3OC(CO)C(O)C(O)C3OC3CC(C)(N)C(O)C(C)O3)Oc3ccc(cc3Cl)C2O)c2ccc(O)c(c2)-c2c(O)cc(O)cc21)C(N)=O (stereo not shown) [MCC_000455] | xxxxx (xxxxx = <0.01) | xxxxx (xxxxx = <0.01) | xxx (xxx = 0.1-<1) |  |  | xxx (xxx = 4-6) | 
4 | CNC(CC(C)C)C(=O)NC1C(=O)NC(CC(N)=O)C(=O)NC2C(=O)NC3C(=O)NC(C(=O)NC(C(=O)NCCCNC(=O)C(CCCCN)NC(=O)C(CCCCN)NC(=O)CCCOc4ccccc4)c4cc(O)cc(O)c4-c4cc3ccc4O)C(O)c3ccc(c(Cl)c3)Oc3cc2cc(c3OC2OC(CO)C(O)C(O)C2OC2CC(C)(N)C(O)C(C)O2)Oc2ccc(cc2Cl)C1O (stereo not shown) [MCC_005365] | xxx (xxx = 0.1-<1) | xxx (xxx = 0.1-<1) | x (x = >4) |  |  |  | xx (xx = 2-4)
5 | CCCCCCCCC(=O)NC(CCCNC(=N)N)C(=O)NCCCNC(=O)C1NC(=O)C2NC(=O)C(NC(=O)C3NC(=O)C(CC(N)=O)NC(=O)C(NC(=O)C(CC(C)C)NC)C(O)c4ccc(c(Cl)c4)Oc4cc3cc(c4OC3OC(CO)C(O)C(O)C3OC3CC(C)(N)C(O)C(C)O3)Oc3ccc(cc3Cl)C2O)c2ccc(O)c(c2)-c2c(O)cc(O)cc21 (stereo not shown) [MCC_007336] |  |  |  |  | xxxx (xxxx = >6) |  | 
6 | CCCCCCCCCC(=O)N[C@@H](Cc1c[nH]c2ccccc12)C(=O)N[C@H](CC(N)=O)C(=O)N[C@@H](CC(=O)O)C(=O)N[C@@H]1C(=O)NCC(=O)N[C@@H](CCCN)C(=O)N[C@@H](CC(=O)O)C(=O)N[C@H](C)C(=O)N[C@@H](CC(=O)O)C(=O)NCC(=O)N[C@H](CO)C(=O)N[C@@H]([C@H](C)CC(=O)O)C(=O)N[C@@H](CC(=O)c2ccccc2N)C(=O)O[C@@H]1C [Daptomycin, reference compound] |  |  |  |  |  |  | xxx (xxx = 4-6)
7 | CCCCCCCCCC(=O)N[C@@H](CCCCN)C(=O)NCCCNC(=O)[C@H]1NC(=O)[C@H]2NC(=O)[C@H](NC(=O)[C@@H]3NC(=O)[C@H](CC(N)=O)NC(=O)[C@H](NC(=O)[C@@H](CC(C)C)NC)[C@H](O)c4ccc(c(Cl)c4)Oc4cc3cc(c4O[C@@H]3O[C@H](CO)[C@@H](O)[C@H](O)[C@H]3O[C@H]3C[C@](C)(N)[C@H](O)[C@H](C)O3)Oc3ccc(cc3Cl)[C@H]2O)c2ccc(O)c(c2)-c2c(O)cc(O)cc21 [MCC_005200] | xxxx (xxxx = 0.01-<0.1) | xxxx (xxxx = 0.01-<0.1) | xx (xx = 1-4) |  | xx (xx = 2-4) |  | 
8 | CCCCCCCCC(=O)N[C@@H](CCCCN)C(=O)N[C@@H](CCCCNC(=O)[C@H]1NC(=O)[C@H]2NC(=O)[C@H](NC(=O)[C@@H]3NC(=O)[C@H](CC(N)=O)NC(=O)[C@H](NC(=O)[C@@H](CC(C)C)NC)[C@H](O)c4ccc(c(Cl)c4)Oc4cc3cc(c4O[C@@H]3O[C@H](CO)[C@@H](O)[C@H](O)[C@H]3O[C@H]3C[C@](C)(N)[C@H](O)[C@H](C)O3)Oc3ccc(cc3Cl)[C@H]2O)c2ccc(O)c(c2)-c2c(O)cc(O)cc21)C(=O)O [MCC_005223] | xxx (xxx = 0.1-<1) | xx (xx = 1-4) | x (x = >4) |  | x (x = 0-2) |  | 
9 | CCCCCCCCCCC(=O)N[C@@H](CCCCN)C(=O)N[C@@H](CCCCN)C(=O)NCCCNC(=O)[C@H]1NC(=O)[C@H]2NC(=O)[C@H](NC(=O)[C@@H]3NC(=O)[C@H](CC(N)=O)NC(=O)[C@H](NC(=O)[C@@H](CC(C)C)NC)[C@H](O)c4ccc(c(Cl)c4)Oc4cc3cc(c4O[C@@H]3O[C@H](CO)[C@@H](O)[C@H](O)[C@H]3O[C@H]3C[C@](C)(N)[C@H](O)[C@H](C)O3)Oc3ccc(cc3Cl)[C@H]2O)c2ccc(O)c(c2)-c2c(O)cc(O)cc21 [MCC_000344] | xxxx (xxxx = 0.01-<0.1) | xxxx (xxxx = 0.01-<0.1) | xx (xx = 1-4) |  |  | xxx (xxx = 4-6) | 
10 | CCCCCCCCCC(=O)N[C@@H](CCCNC(=N)N)C(=O)N[C@@H](CCCCNC(=O)[C@H]1NC(=O)[C@H]2NC(=O)[C@H](NC(=O)[C@@H]3NC(=O)[C@H](CC(N)=O)NC(=O)[C@H](NC(=O)[C@@H](CC(C)C)NC)[C@H](O)c4ccc(c(Cl)c4)Oc4cc3cc(c4O[C@@H]3O[C@H](CO)[C@@H](O)[C@H](O)[C@H]3O[C@H]3C[C@](C)(N)[C@H](O)[C@H](C)O3)Oc3ccc(cc3Cl)[C@H]2O)c2ccc(O)c(c2)-c2c(O)cc(O)cc21)C(=O)O [MCC_005530] |  |  |  |  | xxx (xxx = 4-6) |  | 
11 | CCCCCCCCC(=O)N[C@@H](CCCCN)C(=O)NCCCNC(=O)[C@H]1NC(=O)[C@H]2NC(=O)[C@H](NC(=O)[C@@H]3NC(=O)[C@H](CC(N)=O)NC(=O)[C@H](NC(=O)[C@@H](CC(C)C)NC)[C@H](O)c4ccc(c(Cl)c4)Oc4cc3cc(c4O[C@@H]3O[C@H](CO)[C@@H](O)[C@H](O)[C@H]3O[C@H]3C[C@](C)(N)[C@H](O)[C@H](C)O3)Oc3ccc(cc3Cl)[C@H]2O)c2ccc(O)c(c2)-c2c(O)cc(O)cc21 [MCC_005203] |  |  |  |  | xxx (xxx = 4-6) |  | 
